These are literature values, as cited in patent US20240058412A1, “MODIFIED RELEASE FORMULATION COMPRISING WITHANOLIDES” (INVENTIA HEALTHCARE LIMITED, priority 2021, published 2024).

Each structure is given as a SMILES string.

The conditions of this data set: mice plasma, oral Withania somnifera extract 1000 mg/kg.

In the case of `CC1=C(CO)C(=O)O[C@@H]([C@@H](C)[C@H]2CC[C@H]3[C@@H]4C[C@H]5O[C@]56[C@@H](O)C=CC(=O)[C@]6(C)[C@H]4CC[C@]23C)C1` [withaferin-A], the half-life (commonly the time in which the quantity being followed falls by half) was 59.92 ± 15.90 min.

Turning to `CC1=C(C)C(=O)O[C@@H]([C@](C)(O)[C@H]2CC[C@H]3[C@@H]4[C@@H]5O[C@@H]5[C@@]5(O)CC=CC(=O)[C@]5(C)[C@H]4CC[C@]23C)C1` [withanolide-A], the half-life was 45.22 ± 9.95 min.
